Test results reported in patent publication US20260049101A1, “TOPICAL TREATMENT OF SKIN CANCER USING OLIGOPEPTIDES” (BACOBA AG, priority 2022, published 2026).
Numbered stars: 1 amine (or outer) side, 2 acyl side, 3 side chain; on linkers, the order of the positions; unused ones are H or OH. Square brackets hold non-standard residues; d marks the D form. Peptide text beside a SMILES is read from it. * marks the point of attachment. X4 = C[C@](N[*:1])(C(=O)[*:2])C(F)(F)F; NH(1-CH2NMe2-cBu) = CN(C)CC1(N*)CCC1; Oxazole4CO(2-Me) = Cc1nc(C(=O)*)co1; Benzoyl(4-F) = O=C(c1ccc(F)cc1)*; hCha = N[C@@H](CCC1CCCCC1)C(=O)O; Nle = CCCC[C@H](N)C(=O)O; Aib = CC(C)(N)C(=O)O; X3 = CN(CCN*)CC(F)F; βAla = NCCC(=O)O

System: cutaneous squamous cell carcinoma cell line SCC12
Test: In vitro anti-proliferative assay (resazurin) in SCC12
Format: cell-based
Conditions: SCC12, 72 hours
Text: Methodology. The cutaneous squamous cell carcinoma cell culture SCC12 was cultivated in keratinocyte-SFM media (KSFM, Cat #17005042, Gibco) supplemented with human recombinant epidermal growth factor 1-53 (EGF 1-53) and bovine pituitary extract (BFE).
Vehicle treated wells were set to 100% viability.

CCCC[C@H](NC(=O)[C@@H]1CCCN1C(=O)c1coc(C)n1)C(=O)N[C@@H](CC(C)C)C(=O)NC(C)(C)C(=O)N[C@@H](CC(C)C)C(=O)N[C@@H](CC(C)C)C(=O)NC(C)(C)C(=O)NC(C)(C)C(=O)NCCC(=O)NC1(CN(C)C)CCC1 [Compound 6781, (2S)—N-[(1S)-1-[(1-{[(1S)-1-{[(1S)-1-({1-[(1-{[2-({1-[(dimethylamino)methyl]cyclobutyl}carbamoyl)ethyl]carbamoyl}-1-methylethyl)carbamoyl]-1-methylethyl}carbamoyl)-3-methylbutyl]carbamoyl}-3-methylbutyl]carbamoyl}-1-methylethyl)carbamoyl]-3-methylbutyl]-2-{[(2S)-1-(2-methyl-1,3-oxazole-4-carbonyl)pyrrolidin-2-yl]formamido}hexanamide] ({Oxazole4CO(2-Me)}-P[Nle]L[Aib]LL[Aib][Aib][βAla]-{NH(1-CH2NMe2-cBu)}) was tested, and the IC50 was 6850 nM.
With CC(C)C[C@H](NC(=O)[C@H](CC(C)C)NC(=O)[C@](C)(NC(=O)[C@H](CC(C)C)NC(=O)[C@H](CCC1CCCCC1)NC(=O)[C@@H]1CCCN1C(=O)c1ccc(F)cc1)C(F)(F)F)C(=O)NC(C)(C)C(=O)NC(C)(C)C(=O)NCCC(=O)NC1(CN(C)C)CCC1 [Compound 21362, (2S)-2-[(2S)-4-cyclohexyl-2-{[(2S)-1-(4-fluorobenzoyl)pyrrolidin-2-yl]formamido}butanamido]-N-[(1S)-1-{[(1S)-1-{[(1S)-1-({1-[(1-{[2-({1-[(dimethylamino)methyl]cyclobutyl}carbamoyl)ethyl]carbamoyl}-1-methylethyl)carbamoyl]-1-methylethyl}carbamoyl)-3-methylbutyl]carbamoyl}-3-methylbutyl]carbamoyl}-2,2,2-trifluoro-1-methylethyl]-4-methylpentanamide] ({Benzoyl(4-F)}-P[hCha]L[X4]LL[Aib][Aib][βAla]-{NH(1-CH2NMe2-cBu)}) the IC50 was 717 nM.
In the case of COc1ccc(-c2ccc(OC[C@H](NC(=O)[C@@H]3CCCN3C(=O)c3ccc(F)cc3)C(=O)N[C@@H](CC(C)C)C(=O)NC(C)(C)C(=O)N[C@@H](CC(C)C)C(=O)N[C@@H](CC(C)C)C(=O)NC(C)(C)C(=O)NC(C)(C)C(=O)NCCC(=O)NC3(CN(C)C)CCC3)cc2)cc1 [Compound 7824, (2S)—N-{1-[(1-{[2-({1-[(dimethylamino)methyl]cyclobutyl}carbamoyl)ethyl]carbamoyl}-1-methylethyl)carbamoyl]-1-methylethyl}-2-[(2S)-2-{2-[(2S)-2-[(2S)-2-{[(2S)-1-(4-fluorobenzoyl)pyrrolidin-2-yl]formamido}-3-({4′-methoxy-[1,1′-biphenyl]-4-yl}oxy)propanamido]-4-methylpentanamido]-2-methylpropanamido}-4-methylpentanamido]-4-methylpentanamide], the IC50 is reported as 375 nM.
In the case of CC(C)C[C@H](NC(=O)[C@H](CCC1CCCCC1)NC(=O)[C@@H]1CCCN1C(=O)c1ccc(F)cc1)C(=O)NC(C)(C)C(=O)N[C@@H](CC(C)C)C(=O)N[C@@H](CC(C)C)C(=O)NC(C)(C)C(=O)NC(C)(C)C(=O)NCCC(=O)NCCN(C)CC(F)F [Compound 8342, (2S)-2-[(2S)-4-cyclohexyl-2-{[(2S)-1-(4-fluorobenzoyl)pyrrolidin-2-yl]formamido}butanamido]-N-(1-{[(1S)-1-{[(1S)-1-({1-[(1-{[2-({2-[(2,2-difluoroethyl)(methyl)amino]ethyl}carbamoyl)ethyl]carbamoyl}-1-methylethyl)carbamoyl]-1-methylethyl}carbamoyl)-3-methylbutyl]carbamoyl}-3-methylbutyl]carbamoyl}-1-methylethyl)-4-methylpentanamide] ({Benzoyl(4-F)}-P[hCha]L[Aib]LL[Aib][Aib][βAla]-X3), the IC50 is reported as 584 nM.
